Experiments:
Format in all cases: in vivo, human
[1] = tested on: Caucasian and Asian volunteers; test: Squalene content of sebum sampled with Sebutape patches (HPTLC, densitometry); details: after 28 days of treatment; zinc gluconate 1%; signed change
Protocol: (§1) The principle of this evaluation is based on the clinical and instrumental analysis of samples of secretions of sebum using Sebutape™ patches according to the conventional method.
(§2) The products tested were: • the extract according to the invention prepared in accordance with Example 1 a) is tested at final concentrations of from 0.5% to 2% of extract 1 a) diluted in water • an aqueous solution of zinc gluconate at 1% (10 mg/mL; 2.2×10^−2 mol/L) in water is used as positive control • no solution as negative control
(§3) The following treatment was carried out for each of the products tested: Caucasian and Asian volunteers applied a test product once a day, in blind conditions. Clinical and instrumental assessments, by application of Sebutape™ patches, were carried out on D0, D14 and D28 and the contents of these samples of Sebutape™ patches were analysed quantitatively by image analyser (polarimetric imaging).
Determination of the squalene taken in the Sebutape™ patches was carried out as follows:
The Sebutape™ patches were treated by extraction with 10 ml of ether. […]
The squalene spots were then quantified by densitometry using an instrument of the ChromatoScan CS-93 (Shimadzu) type. Reading was based on absorption at 450 nm and the area of the peaks was expressed in arbitrary units in the table of results given below.

[2] = tested on: Caucasian and Asian volunteers; test: Clinical assessment of pore size and shiny appearance in volunteers, once-daily topical application; details: after 28 days of treatment, extract at 2%, zinc gluconate 1%
Protocol: as §1, §2, §3
(§4) The experiment was conducted on Caucasian and Asian volunteers according to the conditions described in Example 3 for 28 days of treatment (last application on D27 in the evening). Assessments carried out on D30 allowed the persistence of the effect of an extract according to the invention on the production of sebum to be evaluated, two days after stopping the treatment.

Asian volunteers = test: Self-evaluation of skin texture (refinement of skin grain) after stopping treatment; details: 2 days after stopping the treatment, extract at 2%, zinc gluconate positive control
Protocol: as §4
Results for skin texture: (self-evaluation)
Moreover, 2 days after stopping the treatment, 71% of the Asian volunteers who had applied the extract according to Example 1 a) at 2% declared that there was refinement of their skin grain (p<0.05). In comparison, only 52% of the volunteers in the group of volunteers who had applied the positive control (zinc gluconate) noticed an improvement in this parameter.

[3] = tested on: Caucasian and Asian volunteers; test: Number of active sebaceous glands (number of spots on Sebutape patches, image analysis)
Protocol: as §1, §2
The following treatment was carried out for each of the products tested: Caucasian and Asian volunteers applied a test product once a day, in blind conditions. Clinical and instrumental assessments, by application of Sebutape™ patches, were carried out on D0, D14 and D28 and the contents of these samples of Sebutape™ patches were analysed quantitatively by image analyser (polarimetric imaging). […]
as §4

zinc gluconate [Zinc gluconate 1%]
Change of content of squalene in the sebum [1]: −14%
Reduction of pore size (clinical assessment) [2]: 17.5%
Volunteers who declared refinement of their skin grain (self-evaluation) (Asian volunteers): 52%
Active sebaceous glands, % Dn/D0, 2 days after D28 ([3]; number of spots on Sebutape patches 2 days after stopping the treatment compared against D0): −3.8%
Active sebaceous glands, % Dn/D0, D28 ([3]; number of spots on Sebutape patches after 28 days compared against D0): +8.5%

Reference: patent US20110244063A1, “NOVEL SEBUM SECRETION INHIBITORY AGENT” (BASF Beauty Care Solutions France S.A.S., priority 2008, published 2011)
